9 molecules from ChEMBL document CHEMBL1201862, “PubChem BioAssay data set” (2004) can be followed below.

Test systems include SN12C; TK-10; HOP-62; ACHN; IGROV-1; NCI-H522; SK-MEL-2; SF-295; CCRF-CEM; KM12; BT-549; SK-MEL-5; LOX IMVI; PC-3; HCT-15; T47D; MOLT-4; NCI-H23; 786-0; DU-145.
What all share (assay): DTP human tumour cell line panel, 48 h

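Protocol summary: plate cells (96-well), add compound at 5 concentrations, incubate 48 h, interpolate endpoints linearly. At the GI50, growth is halved.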 Active and inactive are the calls of the source. Rule as the data show it: active = GI50 up to about 1.1 µM and inactive = higher. Starred links: 1 amine or outer side, 2 acyl side, 3 side chain; linkers in the order of their positions; H or OH if unused. Positions of bridges follow the written chain, without caps; N, C: chain ends. Non-standard residues stand in square brackets, D forms with d. Residues, ends and D or L forms follow the SMILES beside them. ξ: configuration not given here. *: point of attachment. γ4hArg(2R,3R-(OH)2) = N=C(N)NCCC[C@H](N[*:1])[C@@H](O)[C@@H](O)C(=O)[*:2]; Gln(3S,4R-Me2) = C[C@H]([C@H](N)C(=O)O)[C@@H](C)C(N)=O; X50 = CC(C)C[C@H](C)[C@@H](O)[C@@H](C)C(=O)*; X51 = COC(c1ccc(O)cc1)C(N[*:1])C(=O)[*:2]; NMeQ = CN[C@@H](CCC(N)=O)C(=O)O; Thr(3ξ) = CC(O)[C@H](N)C(=O)O; NMeA = CN[C@@H](C)C(=O)O A value given as a limit tells only on which side of the number the result lay.

Take `COc1ccc2c(c1[N+](=O)[O-])CC[C@@H]1[C@@H]2CC[C@]2(C)C(=O)CC[C@@H]12`: the GI50 in the assay on SN12C is > 25 µM (inactive); with TK-10, > 25 µM (inactive); with HOP-62, > 6.71 µM (inactive); with ACHN it was > 25 µM (inactive); in the assay with IGROV-1, > 18 µM (inactive); with NCI-H522, > 25 µM (inactive). Moreover, the GI50 was 14.8 µM (inactive) with SK-MEL-2; > 25 µM (inactive) in the assay with SF-295; 9.06 µM (inactive) in the assay with CCRF-CEM; > 25 µM (inactive) in the assay on KM12; > 25 µM (inactive) with BT-549; > 25 µM (inactive) in the assay with SK-MEL-5. In addition, the GI50 with LOX IMVI is > 25 µM (inactive); with PC-3 it was 22 µM (inactive); with HCT-15, more than 25 µM; with T47D, > 25 µM (inactive); in the assay with MOLT-4, > 25 µM (inactive); in the assay on NCI-H23, > 25 µM (inactive). The GI50 was 210 µM (inactive) in the assay on 786-0 and > 25 µM (inactive) with DU-145.

With `CCOC(=O)CCC(C(=O)OCC)n1nnc2cc(Nc3c(C)[n+]([O-])c4ccc(Cl)cc4[n+]3[O-])ccc21` (stereo not given), the GI50 was 80.4 µM (inactive) in the assay on SN12C; > 100 µM (inactive) with TK-10; > 100 µM (inactive) with HOP-62; 60.7 µM (inactive) with ACHN; > 100 µM (inactive) in the assay on IGROV-1; > 100 µM (inactive) in the assay on NCI-H522. For the same molecule, the GI50 was 99.1 µM (inactive) in the assay with SK-MEL-2; 78 µM (inactive) in the assay on SF-295; 39.4 µM (inactive) in the assay on CCRF-CEM; > 100 µM (inactive) with KM12; > 100 µM (inactive) in the assay on BT-549; 73.8 µM (inactive) in the assay with SK-MEL-5. For the same molecule, the GI50 with LOX IMVI is 52.2 µM (inactive); in the assay with PC-3 it was > 100 µM (inactive); in the assay with HCT-15, 53.7 µM; in the assay with T47D, 39.9 µM (inactive); with MOLT-4, 44.2 µM (inactive); in the assay with NCI-H23, 92 µM (inactive). Besides, the GI50 was 98.4 µM (inactive) in the assay on 786-0 and > 100 µM (inactive) in the assay with DU-145.

`COC(c1ccc(O)cc1)C1NC(=O)[C@H](CCC(N)=O)N(C)C(=O)[C@H](CC(C)C)NC(=O)[C@@H](CCCN=C(N)N)NC(=O)[C@H](C(C)O)NC(=O)[C@@H](NC(=O)[C@@H](NC(=O)[C@H](O)[C@H](O)[C@H](CCCN=C(N)N)NC(=O)[C@H](C)NC(=O)[C@H](C)[C@H](O)[C@@H](C)CC(C)C)[C@@H](C)[C@@H](C)C(N)=O)[C@@H](C)OC(=O)[C@H](C)N(C)C1=O` (stereo partly drawn) (X50-A[γ4hArg(2R,3R-(OH)2)][Gln(3S,4R-Me2)]T[Thr(3ξ)][dR]L[NMeQ][X51][NMeA]; ester 4-C): the concentration for 50% growth inhibition (GI50) is 0.149 µM (active) with SN12C; 0.146 µM (active) in the assay on TK-10; 0.15 µM (active) in the assay with HOP-62; 0.115 µM (active) with ACHN; 0.0746 µM (active) in the assay on IGROV-1; 0.0598 µM (active) in the assay on NCI-H522. Moreover, the GI50 in the assay on SK-MEL-2 was 0.247 µM (active); with SF-295, 0.0925 µM (active); with CCRF-CEM it was 0.151 µM (active); in the assay with KM12, 0.121 µM (active); in the assay with BT-549, 0.242 µM (active); in the assay on SK-MEL-5, 0.0682 µM (active). Besides, the GI50 with LOX IMVI was 0.482 µM (active); in the assay with PC-3 it was 0.187 µM (active); with HCT-15 it was 0.133 µM; in the assay on T47D it was 0.138 µM (active); in the assay on MOLT-4 it was 0.139 µM (active); in the assay on NCI-H23 it was 0.0944 µM (active). For the same molecule, the GI50 in the assay on 786-0 was 0.204 µM (active); in the assay with DU-145, 0.0764 µM (active).

For the molecule `CC(C)(C)OC(=O)N(O)[C@@H]1CC[C@H](n2cnc3c(N)ncnc32)C1`, the GI50 with SN12C was > 100 µM (inactive); with TK-10 it was > 100 µM (inactive); in the assay on HOP-62, > 100 µM (inactive); in the assay with ACHN it was > 100 µM (inactive); in the assay with IGROV-1, 54.5 µM (inactive); with NCI-H522, > 100 µM (inactive). Moreover, the GI50 with SK-MEL-2, in the assay with SF-295, in the assay with CCRF-CEM, with KM12, in the assay on BT-549 and in the assay on SK-MEL-5 was > 100 µM (inactive) each time. The GI50 in the assay on LOX IMVI is > 100 µM (inactive); in the assay with PC-3, > 100 µM (inactive); in the assay with HCT-15, more than 100 µM; in the assay on T47D, > 100 µM (inactive); with MOLT-4 it was > 100 µM (inactive); with NCI-H23 it was > 100 µM (inactive). Besides, the GI50 in the assay with 786-0 and with DU-145 was > 100 µM (inactive) throughout.

With `CN/N=C(/C=C/c1ccccc1)C(C)C`, the GI50 in the assay on SN12C is > 100 µM (inactive); in the assay on TK-10, > 100 µM (inactive); with HOP-62, > 100 µM (inactive); in the assay with ACHN, > 100 µM (inactive); with IGROV-1, > 100 µM (inactive); in the assay on NCI-H522, 73.3 µM (inactive). Besides, the GI50 in the assay on SK-MEL-2, in the assay with SF-295, in the assay on CCRF-CEM, in the assay with KM12, in the assay on BT-549 and in the assay on SK-MEL-5 was > 100 µM (inactive) each time. Moreover, the GI50 in the assay on LOX IMVI is > 100 µM (inactive); in the assay with PC-3, > 100 µM (inactive); in the assay with HCT-15, more than 100 µM; in the assay on T47D it was 86.3 µM (inactive); in the assay with MOLT-4, > 100 µM (inactive); with NCI-H23 it was > 100 µM (inactive). Besides, the GI50 in the assay with 786-0 and in the assay with DU-145 was > 100 µM (inactive) throughout.

For the molecule `CC(C)c1ccc(C2NC(S)=NC3=C2c2ccccc2C3=O)cc1` (stereo not given), the GI50 in the assay on SN12C was 24.7 µM (inactive); in the assay on TK-10, 34 µM (inactive); with HOP-62, 25.8 µM (inactive); with ACHN, 27.7 µM (inactive); in the assay on IGROV-1, 27 µM (inactive); in the assay on NCI-H522, 17.3 µM (inactive). Further, the GI50 is 17.4 µM (inactive) with SK-MEL-2; 20.5 µM (inactive) in the assay with SF-295; 26.5 µM (inactive) in the assay with CCRF-CEM; 27.4 µM (inactive) in the assay with KM12; 17.1 µM (inactive) in the assay with BT-549; 20.1 µM (inactive) with SK-MEL-5. The GI50 with LOX IMVI is 20.6 µM (inactive); in the assay with PC-3 it was 11.3 µM (inactive); in the assay with HCT-15, 20.6 µM; in the assay with T47D, 18.2 µM (inactive); in the assay on MOLT-4, 24.4 µM (inactive); with NCI-H23, 23.6 µM (inactive). For the same molecule, the results for the GI50 in the assay with 786-0 and in the assay with DU-145 were 22.5 µM (inactive) and 16.7 µM (inactive), respectively.

With `CN(C)/N=C/c1cn(C)c(=O)n(C)c1=O`, the GI50 with SN12C, in the assay with TK-10, in the assay on HOP-62, with ACHN, with IGROV-1 and in the assay with NCI-H522 was > 100 µM (inactive) each time. Also, the GI50 in the assay with SK-MEL-2, with SF-295, in the assay with CCRF-CEM, with KM12, with BT-549 and with SK-MEL-5 was > 100 µM (inactive) in each case. The GI50 in the assay on LOX IMVI was > 100 µM (inactive); in the assay on PC-3, > 100 µM (inactive); in the assay on HCT-15, more than 100 µM; in the assay on T47D it was > 100 µM (inactive); in the assay with MOLT-4, > 100 µM (inactive); with NCI-H23, > 100 µM (inactive). Besides, the GI50 in the assay with 786-0 and in the assay on DU-145 was > 100 µM (inactive) in each case.

As to `CCCCCCCCCCCCCCCC(=O)OC1C(O)C(O)C(O)C(O)C12CO2` (stereo not given), the GI50 with SN12C is 17.5 µM (inactive); in the assay on TK-10 it was > 100 µM (inactive); in the assay with HOP-62, > 100 µM (inactive); in the assay with ACHN, 24.4 µM (inactive); in the assay with IGROV-1, 25.1 µM (inactive); with NCI-H522 it was 33 µM (inactive). Moreover, the GI50 in the assay on SK-MEL-2 was 37.3 µM (inactive); in the assay with SF-295 it was 70.1 µM (inactive); with CCRF-CEM, 7.94 µM (inactive); with KM12, 36.2 µM (inactive); with BT-549, 24.2 µM (inactive); with SK-MEL-5, > 100 µM (inactive). Moreover, the GI50 in the assay on LOX IMVI was 20.3 µM (inactive); with PC-3, 20.9 µM (inactive); in the assay on HCT-15 it was 24.5 µM; in the assay with T47D, > 100 µM (inactive); in the assay on MOLT-4, 12.2 µM (inactive); in the assay on NCI-H23 it was 49.2 µM (inactive). For the same molecule, the values for the GI50 with 786-0 and with DU-145 were 18.6 µM (inactive) and 88.5 µM (inactive), respectively.

In the case of `CC1=[N+](C)CCN1C`, the GI50 with SN12C, with TK-10, in the assay with HOP-62, with ACHN, in the assay on IGROV-1 and in the assay on NCI-H522 was > 100 µM (inactive) throughout. The GI50 in the assay on SK-MEL-2, in the assay with SF-295, in the assay on CCRF-CEM, in the assay with KM12, with BT-549 and in the assay with SK-MEL-5 was > 100 µM (inactive) throughout. Moreover, the GI50 in the assay on LOX IMVI was > 100 µM (inactive); in the assay with PC-3 it was > 100 µM (inactive); in the assay with HCT-15 it was more than 100 µM; in the assay with T47D, > 100 µM (inactive); with MOLT-4, > 100 µM (inactive); in the assay with NCI-H23 it was > 100 µM (inactive). The GI50 in the assay on 786-0 and with DU-145 was > 100 µM (inactive) in each case.
